Columns and labels:
[1] = test system: Ras-V12-IRES-Cre-ER-shp53 HGG; assay: Histology and immunostaining of Ras-V12-IRES-Cre-ER-shp53 tumors after tamoxifen or oil; assay type: in vivo, mouse
Description: (§1) Tissue preparation and immunohistochemistry on brain tumors and immunofluorescence staining were performed as previously described (26, 50, 51). In histograms, values represent the mean values; error bars are standard deviations (SD) or standard error of the mean (SEM) as indicated in Figure legends. Statistical significance was determined by t test (two-tailed) using GraphPad Prism 4.0 software (GraphPad Inc., San Diego, Calif.). Quantification of the IL-6 intensity staining in was performed using NIH Image J software (http://rsb.info.nih.gov/ij/). The histogram of the intensity of fluorescence of each point of a representative field for each condition was generated. The fluorescence intensity of three fields from three independent tumors was scored, and standardized to the number of cells in the field.
Intracranial injection of Ras-V12-IRES-Cre-ER-shp53 lentivirus was performed in 4-week-old Id-cTKO mice in accordance with guidelines of the […] Animal Care and Use Committee. Briefly, 1.3 μl of purified lentiviral particles in PBS (1×10^9/ml) were injected 1.45 mm lateral and 1.6 mm anterior to the bregma, and 2.3 mm below the skull using a stereotaxic frame (Kopf Instruments). Orthotopic implantation of mouse glioma cells was performed as described using 50,000 cells in 2 μof phosphate buffer (26). […] Mice were monitored daily and sacrificed when neurological symptoms appeared. Tumor volume was obtained using three-dimensional measurements in the formula for an ellipsoid: [Length×Width×Height×(π/6)]. The dimensions were derived from a complete, H&E stained, histological sectioning of the mouse brain. The length was determined by counting the number of sections containing tumor cells and multiplying it by the section thickness. […] Kaplan-Meier survival curve was generated using the DNA Statview software package (AbacusConcepts, Berkeley, Calif.).

[2] = test system: SSEA1 and ITGα6 positive GICs; assay: Proximity of GICs to CD31 positive endothelial cells in the perivascular niche; assay type: in vivo, mouse; conditions: Id-cTKO tumors versus controls
Description: as §1

[3] = test system: GICs from HrasV12-Cre-ER-shp53 glioma; assay: Glioma sphere formation and limiting dilution assay; assay type: cell-based, mouse
Description: For human and mouse glioma sphere formation, cells were infected with lentiviral particles. Three days later single cells were plated at density of ≦3 cells/well in triplicate in low attachment 96 well plates. The number and the size of spheres were scored after 10-14 days. Limiting dilution assay was performed as described previously (24). Spheres were dissociated into single cells and plated in 96-well plates in 0.2 ml of medium containing growth factors. Cultures were left undisturbed for 10 days, and then the percentage of wells not containing spheres for each cell dilution was calculated and plotted against the number of cells per well. Linear regression lines were plotted, and the number of cells required to generate at least one sphere in every well (=the stem cell frequency) was calculated. The experiment was repeated twice.

[4] = test system: Ras-V12-IRES-Cre-ER-shp53 HGG; assay: Survival of glioma-bearing Id-cTKO mice treated with tamoxifen or oil; assay type: in vivo, mouse

CC/C(=C(\c1ccccc1)c1ccc(OCCN(C)C)cc1)c1ccccc1 [tamoxifen]
tumors with dramatic reduction of tumor volume compared with carrier-treated tumors ([1]; Id-cTKO mice sacrificed six weeks after tumor initiation): 80%
reduction in the proliferation rate measured by Ki67 immunoreactivity ([1]; Id-cTKO mice, six weeks after tumor initiation, versus control tumors): four-fold
ID1 and ID2 expression in advanced tumors by immunofluorescence ([1]; seven days after a single four-day cycle of tamoxifen treatment): loss of ID1 and ID2 expression
reduction of the fraction of GICs residing within 10 μm from CD31-positive cells [2]: five-fold
tumor-sphere forming capacity ([3]; GICs derived from Id1wt/wt;Id2wt/wt;Id3-/- mice): no effect
tumor-sphere forming capacity ([3]; GICs isolated from Id-cTKO mice): abolished
minimal frequency of glioma cells endowed with stem cell capacity ([3]; limiting dilution, cells from freshly dissociated tumors of treated animals, control 3.84%±0.51): 0.29%±0.02
mice alive after a median of twenty weeks ([4]; Id-cTKO mice, HrasV12-Cre-ER-shp53 lentivirus, tamoxifen by feeding needle, 4-day cycles from day 12, seven of eleven mice): 64%
tumor growth ([4]; wild type animals infected with HrasV12-Cre-ER-shp53 lentivirus (without ID ablation), data not shown): did not affect tumor growth

Source: patent US20180030546A1, “Identification of a 5-Gene Expression Signature Predicting Clinical Outcome of Patients with Brain Tumors” (THE TRUSTEES OF COLUMBIA UNIVERSITY IN THE CITY OF NEW YORK, priority 2012, published 2018)
